Results reported in the OligoGym collection.
HELM strings list units from the 5' end as sugar, base in round brackets, then linkage (d deoxyribose, r ribose, m 2'-O-methyl, p phosphodiester). Strings are as the collection lists them; they lack the last nucleoside at the 3' end of the tested compound. [moe] = 2'-O-(2-methoxyethyl) (MOE); [sp] = phosphorothioate linkage; [m5C] = 5-methylcytosine

target: APP; assay: mouse, dose not given; conditions: ASO

Substance | 3 h FOB score [score 0-7]
RNA1{[moe]([m5C])[sp].[moe](T)p.[moe]([m5C])p.[moe](T)p.[moe]([m5C])[sp].d(A)[sp].d(T)[sp].d(A)[sp].d(G)[sp].d(T)[sp].d([m5C])[sp].d(T)[sp].d(T)[sp].d(A)[sp].d(A)[sp].[moe](T)p.[moe](T)p.[moe]([m5C])[sp].[moe]([m5C])}$$$$ (last 3' nucleoside missing) | 0.25
RNA1{[moe](T)[sp].[moe]([m5C])p.[moe]([m5C])p.[moe](A)p.[moe](T)[sp].d([m5C])[sp].d(T)[sp].d(T)[sp].d([m5C])[sp].d(A)[sp].d([m5C])[sp].d(T)[sp].d(T)[sp].d([m5C])[sp].d(A)[sp].[moe](G)p.[moe](A)p.[moe](G)[sp].[moe](A)}$$$$ (last 3' nucleoside missing) | 0.5
RNA1{[moe](T)[sp].[moe](A)p.[moe](T)p.[moe](G)p.[moe](A)[sp].d([m5C])[sp].d(A)[sp].d(A)[sp].d([m5C])[sp].d(A)[sp].d([m5C])[sp].d([m5C])[sp].d(G)[sp].d([m5C])[sp].d([m5C])[sp].[moe]([m5C])p.[moe](A)p.[moe]([m5C])[sp].[moe]([m5C])}$$$$ (last 3' nucleoside missing) | 4
RNA1{[moe](T)[sp].[moe](G)p.[moe](T)p.[moe](G)p.[moe](A)[sp].d(T)[sp].d(T)[sp].d(T)[sp].d([m5C])[sp].d(A)[sp].d([m5C])[sp].d(T)[sp].d(A)[sp].d(A)[sp].d([m5C])[sp].[moe]([m5C])p.[moe](G)p.[moe](G)[sp].[moe]([m5C])}$$$$ (last 3' nucleoside missing) | 1.25
RNA1{[moe](T)[sp].[moe](G)p.[moe](T)p.[moe](T)p.[moe]([m5C])[sp].d([m5C])[sp].d(A)[sp].d(A)[sp].d(A)[sp].d(G)[sp].d(A)[sp].d(T)[sp].d(T)[sp].d([m5C])[sp].d([m5C])[sp].[moe](A)p.[moe]([m5C])p.[moe](T)[sp].[moe](T)}$$$$ (last 3' nucleoside missing) | 1
RNA1{[moe](G)[sp].[moe]([m5C])p.[moe](A)p.[moe](G)p.[moe](A)[sp].d(T)[sp].d([m5C])[sp].d(A)[sp].d(T)[sp].d(A)[sp].d(T)[sp].d(A)[sp].d([m5C])[sp].d(T)[sp].d(A)[sp].[moe](T)p.[moe](A)p.[moe]([m5C])[sp].[moe](A)}$$$$ (last 3' nucleoside missing) | 0
RNA1{[moe]([m5C])[sp].[moe](G)p.[moe](A)p.[moe](G)p.[moe](A)[sp].d(T)[sp].d(A)[sp].d([m5C])[sp].d(T)[sp].d(T)[sp].d(G)[sp].d(T)[sp].d([m5C])[sp].d(A)[sp].d(A)[sp].[moe]([m5C])p.[moe](G)p.[moe](G)[sp].[moe]([m5C])}$$$$ (last 3' nucleoside missing) | 2.33
RNA1{[moe]([m5C])[sp].[moe](A)[sp].[moe](T)p.[moe]([m5C])p.[moe](A)[sp].d([m5C])[sp].d(T)[sp].d(T)[sp].d(A)[sp].d([m5C])[sp].d(A)[sp].d(A)[sp].d(A)[sp].d([m5C])[sp].d(T)[sp].[moe]([m5C])p.[moe](A)p.[moe]([m5C])[sp].[moe]([m5C])}$$$$ (last 3' nucleoside missing) | 0
RNA1{[moe](T)[sp].[moe]([m5C])p.[moe](T)p.[moe](G)p.[moe](A)[sp].d(T)[sp].d(A)[sp].d(T)[sp].d(T)[sp].d([m5C])[sp].d(A)[sp].d([m5C])[sp].d(T)[sp].d(T)[sp].d(A)[sp].[moe](T)p.[moe]([m5C])p.[moe](T)[sp].[moe](G)}$$$$ (last 3' nucleoside missing) | 0
RNA1{[moe](G)[sp].[moe]([m5C])p.[moe]([m5C])p.[moe](A)p.[moe](A)[sp].d([m5C])[sp].d(T)[sp].d(T)[sp].d(A)[sp].d(T)[sp].d(T)[sp].d([m5C])[sp].d(T)[sp].d([m5C])[sp].d(A)[sp].[moe](A)p.[moe](G)p.[moe](G)[sp].[moe](G)}$$$$ (last 3' nucleoside missing) | 1
RNA1{[moe](T)[sp].[moe]([m5C])p.[moe](G)p.[moe](G)p.[moe](A)[sp].d([m5C])[sp].d(T)[sp].d(T)[sp].d(A)[sp].d([m5C])[sp].d(T)[sp].d(G)[sp].d(T)[sp].d(A)[sp].d(A)[sp].[moe](T)p.[moe](G)p.[moe](G)[sp].[moe](G)}$$$$ (last 3' nucleoside missing) | 1.25
RNA1{[moe](G)[sp].[moe]([m5C])p.[moe]([m5C])p.[moe](T)p.[moe](T)[sp].d(A)[sp].d(T)[sp].d(T)[sp].d(A)[sp].d(T)[sp].d([m5C])[sp].d(T)[sp].d([m5C])[sp].d(A)[sp].d(A)[sp].[moe](A)p.[moe]([m5C])p.[moe](T)[sp].[moe]([m5C])}$$$$ (last 3' nucleoside missing) | 0
RNA1{[moe](T)[sp].[moe](G)p.[moe](G)p.[moe](T)p.[moe]([m5C])[sp].d(T)[sp].d(A)[sp].d(T)[sp].d(A)[sp].d(T)[sp].d(A)[sp].d(T)[sp].d(T)[sp].d(T)[sp].d([m5C])[sp].[moe](A)p.[moe](G)p.[moe](G)[sp].[moe]([m5C])}$$$$ (last 3' nucleoside missing) | 0
RNA1{[moe](T)[sp].[moe](G)p.[moe](G)p.[moe]([m5C])p.[moe](T)[sp].d(T)[sp].d(A)[sp].d(T)[sp].d(G)[sp].d(A)[sp].d(T)[sp].d([m5C])[sp].d(T)[sp].d(A)[sp].d(T)[sp].[moe](A)p.[moe]([m5C])p.[moe](A)[sp].[moe]([m5C])}$$$$ (last 3' nucleoside missing) | 1
RNA1{[moe]([m5C])[sp].[moe](A)p.[moe](T)p.[moe](T)p.[moe]([m5C])[sp].d(T)[sp].d([m5C])[sp].d(T)[sp].d(T)[sp].d(A)[sp].d(T)[sp].d(A)[sp].d(T)[sp].d(T)[sp].d([m5C])[sp].[moe]([m5C])p.[moe](T)p.[moe](T)[sp].[moe](A)}$$$$ (last 3' nucleoside missing) | 0
RNA1{[moe](G)[sp].[moe]([m5C])p.[moe](A)p.[moe]([m5C])p.[moe](A)[sp].d(A)[sp].d([m5C])[sp].d(T)[sp].d(T)[sp].d(T)[sp].d(A)[sp].d(T)[sp].d(T)[sp].d(T)[sp].d([m5C])[sp].[moe](T)p.[moe](A)p.[moe](G)[sp].[moe](A)}$$$$ (last 3' nucleoside missing) | 1
RNA1{[moe](G)[sp].[moe]([m5C])p.[moe](A)p.[moe](G)p.[moe](A)[sp].d(A)[sp].d(T)[sp].d(A)[sp].d([m5C])[sp].d([m5C])[sp].d(A)[sp].d(A)[sp].d(G)[sp].d(T)[sp].d(T)[sp].[moe](A)p.[moe](G)p.[moe](T)[sp].[moe](A)}$$$$ (last 3' nucleoside missing) | 0.25
RNA1{[moe](T)[sp].[moe]([m5C])p.[moe](T)p.[moe](T)p.[moe]([m5C])[sp].d(T)[sp].d(T)[sp].d([m5C])[sp].d([m5C])[sp].d(A)[sp].d([m5C])[sp].d([m5C])[sp].d(T)[sp].d([m5C])[sp].d(A)[sp].[moe](G)p.[moe]([m5C])p.[moe]([m5C])[sp].[moe](A)}$$$$ (last 3' nucleoside missing) | 0.5
